According to patent US20230265068A1, “TRANSIENT RECEPTOR POTENTIAL CANONICAL 3 INHIBITORS AND METHODS OF USE THEREOF” (University of Tennessee Research Foundation, priority 2020, published 2023):

Tested on: PTZ-induced seizures
Assay: mouse pentylenetetrazole (PTZ) model of SE
Type: in vivo, mice
Conditions: 100 mg/kg, i.p., 30 min before PTZ; vs vehicle
Protocol: FIGS. 8A-8B show the inhibition of TRPC3 channels by compound 22 reduces susceptibility of animals to PTZ-induced seizures. Young adult C57BL/6 mice (male, 8-9 weeks) were first treated by compound 22 (100 mg/kg, i.p.), and 30 minutes later by pentylenetetrazole (PTZ, 80±5 mg/kg, s.c.) for the induction seizures. (FIG. 8A) Percentages of mice reaching myoclonic jerk (MJ, Left) and generalized tonic-clonic seizure (GTCS, Right) were compared between vehicle and compound 22-treated mice by Mantel-Cox log-rank test. (FIG. 8B) Latencies to the first MJ (Left) and first GTCS (Right) were compared between vehicle and compound 22 by t-test. Data are shown as mean+SEM (number of mice N=9 for vehicle; 10 for compound 22).
To ensure that the efficacy observed in FIG. 7 is not associated with this particular mouse model of epilepsy, we examined the effects of our current lead compound 22 on pentylenetetrazole (PTZ)-induced seizures in mice. As a GABA receptor antagonist, PTZ is another convulsant chemical commonly used to generate seizures in experimental rodents. Young adult C57BL/6 mice (male, 8-9 weeks) were first treated by 22 (100 mg/kg, i.p.) or vehicle. Thirty minutes later, mice were subcutaneously injected with (PTZ, ˜80 mg/kg) to induced seizures. Animals were placed in a plexiglass chamber, and the latencies to the first myoclonic jerk (MJ) and the first generalized tonic-clonic seizure (GTCS) were recorded during a 30-min period of observation. […] Given that PTZ (FIG. 8) and pilocarpine (FIG. 7) trigger seizures via different mechanisms of actions, it is unlikely the anti-seizure effects of our lead compound 22 are model-specific.

CCNC(=O)c1cnn(-c2ccc(-n3ccc(Cl)c(Cl)c3=O)cc2)c1C(F)(F)F [Compound 22]
latency to first GTCS: significantly increased | latency to first MJ: significantly increased | percentage of mice that reached generalized tonic-clonic seizure (GTCS): substantially reduced | percentage of mice that reached myoclonic jerk (MJ): substantially reduced
